The text below walks through data of PMC9069992 (Journal of the American Chemical Society, 2022).

The subject of series [1] is GA of HeLa cells. Description: CLSM / single cell imaging of fluorescence accumulation at Golgi apparatus. Type of series: cell-based, Homo sapiens. To be noted: for accumulation at / targeting of GA (in words): CLSM, fluorescence at GA, Figures S16, S30A, S33, S35-S44; for effect of thioesterase inhibitor on GA accumulation of C6-NBD-Ceramide: Figures S11, S12; for effect of thioesterase inhibitor on accumulation of 1 at GA: by itself or in combination, Figures S4, S9, S10.

Series [2] has as its system GA of HeLa, Saos-2, HEK293, MCF-7, HS-5, SJSA-1, HepG2, B16F10, S2 cells. Description: CLSM of GA targeting in various cell lines. Type of series: cell-based, Homo sapiens, Mus musculus, Drosophila. To be noted: 10 μM, 8 min, Figure 2B.
The nature of series [3]: Critical micelle concentration. Type of series: physicochemical. To be noted: Figure 1C.
Series [4] addresses T1, carboxylesterase (CES1) (Homo sapiens, UniProt P23141).
T1 sequence (P23141 18-567): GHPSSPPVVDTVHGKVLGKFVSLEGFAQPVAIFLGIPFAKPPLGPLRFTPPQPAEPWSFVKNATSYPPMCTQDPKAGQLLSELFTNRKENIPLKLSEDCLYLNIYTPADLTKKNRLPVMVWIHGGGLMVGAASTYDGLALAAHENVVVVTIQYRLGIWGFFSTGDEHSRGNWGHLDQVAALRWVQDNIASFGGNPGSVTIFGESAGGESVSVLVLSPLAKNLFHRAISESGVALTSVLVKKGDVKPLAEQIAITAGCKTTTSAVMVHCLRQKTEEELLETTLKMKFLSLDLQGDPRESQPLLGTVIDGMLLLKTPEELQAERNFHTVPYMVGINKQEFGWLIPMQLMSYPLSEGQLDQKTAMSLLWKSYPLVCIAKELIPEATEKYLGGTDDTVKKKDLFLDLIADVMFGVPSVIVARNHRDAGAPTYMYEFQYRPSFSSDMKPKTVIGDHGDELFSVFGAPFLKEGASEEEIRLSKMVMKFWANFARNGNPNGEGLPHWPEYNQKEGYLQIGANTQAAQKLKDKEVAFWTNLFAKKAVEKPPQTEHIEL
Nature of the series: Cell free hydrolysis by carboxylesterase. Type of series: biochemical. To be noted: cell free assay, Figure S13.

The nature of series [5]: TEM of self-assembly. Type of series: physicochemical. To be noted: 20 μM, Figure S43.
In series [6] the test system is NRAS. Description: ICC staining of NRAS distribution in MCF-7 cells. Type of series: cell-based, Homo sapiens. To be noted: MCF-7, 10 μM, 30 min, ICC staining with NRAS antibody, Figure 3C.
Series [7] deals with neutrophils (polymorphonuclear leukocytes). Nature of the series: GA localization in primary cells. In kind it is cell-based. To be noted: Figure S24.

With `CCCCCCCCCCCCC/C=C/[C@@H](O)[C@H](CO)NC(=O)CCCCCNc1ccc([N+](=O)[O-])c2nonc12` [C6-NBD-ceramide, C6-NBD-Ceramide, reference compound], the “accumulation at / targeting of GA (in words)” value in series [1] is listed as “shows dim fluorescence over 16 minutes”.
Turning to `CN(CCCCCCNc1ccnc2cc(Cl)ccc12)CCCCCCNc1ccnc2cc(Cl)ccc12` [DC661, reference compound], in series [1], the “effect of thioesterase inhibitor on GA accumulation of C6-NBD-Ceramide” value is on record as “cannot block the GA accumulation” and the “effect of thioesterase inhibitor on accumulation of 1 at GA” value is “efficiently block 1 accumulating at GA”.
For `CC(C)(C)C1CCN(C(=O)n2ncc(C(O)(c3ccccc3)c3ccccc3)n2)CC1` [ML211, reference compound], in series [1], the “effect of thioesterase inhibitor on GA accumulation of C6-NBD-Ceramide” value was “cannot block the GA accumulation” and the “effect of thioesterase inhibitor on accumulation of 1 at GA” value is “efficiently block 1 accumulating at GA”.
Regarding `CC(=O)SCCNC(=O)[C@@H](Cc1ccccc1)NC(=O)[C@@H](Cc1ccccc1)NC(=O)CCNc1ccc([N+](=O)[O-])c2nonc12` [compound 1], in series [2], the “targeting GA of various cells (in words)” value is “able to target GA of various cells from different organisms”. Moreover, in series [3], the “critical micelle concentration (CMC)” value was 2.1 µM. For the same compound, the “accumulation at / targeting of GA (in words)” value in series [1] is given as “accumulates primarily at GA”. Also, the “time after addition until GA becomes distinguishable” value in series [1] (Figures S1, S2, video S1) is listed as “less than 1 min”. Also, in series [1] (HeLa treated with chlorpromazine, 2 μM of 1, Figure S8), the “dependence on clathrin-mediated endocytosis at 2 μM” value is “hardly”. For the same compound, the “dependence on clathrin-mediated endocytosis at 10 μM” value in series [1] (HeLa treated with chlorpromazine, 10 μM of 1, Figure S8) is on record as “only slightly”. Besides, the “time until fluorescence plateaus outside GA” value in series [1] (HeLa, 10 μM, 60 min, single cell imaging analysis, Figure 1B) is listed as > 45 min. The “enhancement of fluorescence intensity at GA from 1 minute to 8 minutes” value in series [1] (HeLa, Figure S15) was “at least 3 times”. In series [4], the “hydrolysis by carboxylesterase (CES1) (in words)” value is on record as “able to catalyze the hydrolysis of 1”. Also, in series [5], the “self-assembly seen by TEM (in words)” value is “self-assembles into nanoparticles and nanofibers”. Also, in series [6], the “intracellular distribution of NRAS after pretreatment (in words)” value was “relocates from mainly plasma membrane to overwhelmingly GA”. Moreover, the “entry into primary cells and localization (in words)” value in series [7] was “localizes at GA”.
